Key:
[1] = test system: A431 (ATCC: CRL-1555); assay: Test of cancer cell growth inhibition (SRB), A431; conditions: Homo sapiens, A-431, 72 h, read-out: IC50 A431
[2] = test system: SK-Br3 (ATCC: HTB-30); assay: Test of cancer cell growth inhibition (SRB), SK-Br3; conditions: Homo sapiens, SK-BR-3, 72 h, read-out: IC50 SK-Br-3

Work on `C=CC(=O)N1CCC[C@H]1C(=O)Nc1cc2c(Nc3ccc(OCc4ccccn4)c(Cl)c3)ncnc2cc1OCCF` [Example 187, (2S)-1-acryloyl-pyrrolidine-2-carboxylic acid [4-[3-chloro-4-(pyridin-2-ylmethoxy)-phenylamino]-7-(2-fluoro-ethoxy)-quinazolin-6-yl]-amide] yielded an IC50 [1] of 22 nM and an IC50 [2] of 3 nM.
Work on `C=CC(=O)N1CCC[C@H]1C(=O)Nc1cc2c(Nc3ccc4c(cnn4Cc4cccc(F)c4)c3)ncnc2cc1OC` [Example 188, (2S)-1-acryloyl-pyrrolidine-2-carboxylic acid {4-[1-(3-fluoro-benzyl)-1H-indazol-5-ylamino]-7-methoxy-quinazolin-6-yl}-amide] yielded an IC50 [1] of 24 nM and an IC50 [2] of 6 nM.
Compound `C=CC(=O)N(C)[C@@H](C)C(=O)Nc1cc2c(Nc3ccc(OCc4ccccn4)c(Cl)c3)ncnc2cc1OC` [Example 191, (1S)—N-(1-{4-[3-chloro-4-(pyridin-2-ylmethoxy)-phenylamino]-7-methoxy-quinazolin-6-ylcarbamoyl}ethyl)-N-methyl-acrylamide] has an IC50 [1] of 56 nM and an IC50 [2] of 3 nM.
With `C=CC(=O)NCCC(=O)Nc1cc2c(Nc3ccc(OCc4ccccn4)c(Cl)c3)ncnc2cc1F` [Example 192, N-(2-{4-[3-chloro-4-(pyridin-2-ylmethoxy)-phenylamino]-7-fluoro-quinazolin-6-ylcarbamoyl}-ethyl)-acrylamide] the IC50 [1] was 36 nM and the IC50 [2] was 6 nM.
With `C=CC=CCn1ncc2cc(Nc3ncnc4cc(OC)c(NC(=O)[C@@H]5CCCN5C(=O)C=C)cc34)ccc21` [Example 193, (2S)-1-acryloyl-pyrrolidine-2-carboxylic acid [7-methoxy-4-(1-penta-2,4-dienyl-1H-indazol-5-ylamino)-quinazolin-6-yl]-amide] the IC50 [1] was 75 nM and the IC50 [2] was 22 nM.
In the case of `C=CC(=O)N1CCC[C@H]1C(=O)Nc1cc2c(Nc3ccc(OCc4cccc(C)n4)c(Cl)c3)ncnc2cc1OC` [Example 194, (2S)-1-acryloyl-pyrrolidine-2-carboxylic acid {4-[3-chloro-4-(6-methyl-pyridin-2-ylmethoxy)-phenylamino]-7-methoxy-quinazolin-6-yl}-amide], the IC50 [1] is reported as 93 nM and the IC50 [2] is reported as 56 nM.
With `C=CC(=O)N1CCC1C(=O)Nc1cc2c(Nc3ccc(OCc4ccccn4)c(Cl)c3)ncnc2cc1F` (stereo not shown) [Example 195, 1-acryloyl-azetidine-2-carboxylic acid {4-[3-chloro-4-(pyridin-2-ylmethoxy)-phenylamino]-7-fluoro-quinazolin-6-yl}-amide] the IC50 [1] was 119 nM and the IC50 [2] was 44 nM.
Work on `C=CC(=O)N1CCCCC1C(=O)Nc1cc2c(Nc3ccc(OCc4ccccn4)c(Cl)c3)ncnc2cc1OC` (stereo not shown) [Example 196, 1-acryloyl-piperidine-2-carboxylic acid {4-[3-chloro-4-(pyridin-2-ylmethoxy)-phenylamino]-7-methoxy-quinazolin-6-yl}-amide] yielded an IC50 [1] of 88 nM and an IC50 [2] of 25 nM.
`C=CC(=O)N1CCC(C(=O)Nc2cc3c(Nc4ccc(OCc5ccccn5)c(Cl)c4)ncnc3cc2OC)CC1` [Example 197, 1-acryloyl-piperidine-4-carboxylic acid {4-[3-chloro-4-(pyridin-2-ylmethoxy)-phenylamino]-7-methoxy-quinazolin-6-yl}-amide] was tested, and the IC50 [1] was 259 nM and the IC50 [2] was 196 nM.
`C=CC(=O)N1CCC(C(=O)Nc2cc3c(Nc4ccc(OCc5ccccn5)c(Cl)c4)ncnc3cc2OC)C1` (stereo not shown) [Example 198, 1-acryloyl-pyrrolidine-3-carboxylic acid {4-[3-chloro-4-(pyridin-2-ylmethoxy)-phenylamino]-7-methoxy-quinazolin-6-yl}-amide] was tested, and the IC50 [1] was 47 nM and the IC50 [2] was 24 nM.
`C=CC(=O)N1CCC1C(=O)Nc1cc2c(Nc3ccc(OCc4ccccn4)c(Cl)c3)ncnc2cc1OCC` (stereo not shown) [Example 199, 1-acryloyl-azetidine-2-carboxylic acid {4-[3-chloro-4-(pyridin-2-ylmethoxy)-phenylamino]-7-ethoxy-quinazolin-6-yl}-amide] gave an IC50 [1] of 145 nM and an IC50 [2] of 96 nM.

Source: patent publication US8003658B2, “Quinazoline derivatives for inhibiting cancer cell growth and method for the preparation thereof” (Hanmi Holdings Co., Ltd., priority 2004, dated 2011)
